Data taken from patent US8343729B2, “Luciferin luminescent substrate of marine ostracod crustacean and method for production thereof” (National Institute of Advanced Industrial Science and …, priority 2005, dated 2013).

System: Marine ostracod crustacean luciferase
Test: Measurement of luminescence spectra of marine ostracod crustacean luciferins with luciferase
Assay type: biochemical
Details: luciferase 100 ng/mL, 50 mM Tris-HCl buffer (pH 7.5)

CC[C@H](C)c1nc2c(/C=C/CNC(=N)N)[nH]c(-c3c[nH]c4ccccc34)cn-2c1=O [Compound 17]
shift of luminescence maximum wavelength to the long wavelength side compared with native luciferin (spectrum integrated for 30 seconds): about 15 nm

N=C(N)NCCCc1[nH]c(-c2c[nH]c3ccccc23)cn2c(=O)c(Cc3ccccc3)nc1-2 [Compound 30]
direction of shift of biological luminescence wavelength compared with native luciferin (11): shifted to the short wavelength

CC(c1ccccc1)c1nc2c(CCCNC(=N)N)[nH]c(-c3c[nH]c4ccccc34)cn-2c1=O (centres unmarked) [Compound 32]
direction of shift of biological luminescence wavelength compared with native luciferin (11): shifted to the long wavelength

CCC(c1ccccc1)c1nc2c(CCCNC(=N)N)[nH]c(-c3c[nH]c4ccccc34)cn-2c1=O (centres unmarked) [Compound 34]
direction of shift of biological luminescence wavelength compared with native luciferin (11): shifted to the long wavelength

CCC(C)c1nc2c(CCCNC(=N)N)[nH]c(-c3ccc4ccccc4c3)cn-2c1=O (centres unmarked) [Compound 36]
direction of shift of biological luminescence wavelength compared with native luciferin (11): shifted to the short wavelength
